Results taken from patent EP0062704A1, “Cyclopropanecarboxylic-acid ester as an agent in the fight against larves of the Gasterophilidae family in Equidae” (HOECHST AKTIENGESELLSCHAFT, priority 1980, dated 1982).
Marks after values point to notes of the source that are not given here.

What was measured:
[1] = tested on: Larven III der Magenbremse, Gasterophilus intestinalis; assay: In vitro test on larvae III of Gasterophilus intestinalis (5 min immersion, mortality count); settings: 10 larvae immersed 5 min in 0,1 % active dilution, kept at about 37°C
From the text: Beispiel 2 : In vitro Test an Larven von Gasterophilus intestinalis
Die Verbindungen (S)-a-Cyan-3-phenoxybenzyl(1R)-cis-3-(2,2-dibromvinyl)-2,2-dimethylcyclopropancarboxylat, nachfolgend bezeichnet als Verbindung A, (S)-a-Cyan-3-phenoxybenzyl (1R)-cis-3-(2,2-dichlorvinyl)-2,2-dimethylcyclopropancarboxylat, nachfolgend bezeichnet als Verbindung B, (S)-o-Cyan-3-phenoxybenzyl(1R)-cis-3-(2', 2'-dichlor-1',2'-dibromäthyl)-2,2-dimethylcyclopropancarboxylat, nachfolgend bezeichnet als Verbindung C, werden in Zubereitungen nach Beispiel 1 a) so in Wasser verdünnt, daß die Verdünnungen 0,1 % der Wirkstoffe enthalten. Zum Vergleich wird Dimethyl-2,2,2-trichloro-1-hydroxyäthyl-phosphonat (Trichlorfon) in derselben Verdünnung verwendet.
Larven III der Magenbremse, Gasterophilus intestinalis, werden aus dem Magen eines geschlachteten Pferdes entnommen. Jeweils zehn Larven werden in Bechergläsern in die Verdünnungen für 5 Minuten eingetaucht. Zur Kontrolle werden 10 Larven in Wasser eingetaucht. Danach werden die Larven auf Filterpapier getrocknet und in Behälter aus Styropor verbracht, die unter einer Wärmelampe bei etwa 37°C aufbewahrt werden. Nach 1, 6, 24, 48, 72, 96 und 120 Stunden werden alle Larven untersucht und deren Mortalität protokolliert.

[2] = tested on: Gasterophilus nasalis; assay: In vivo test in horses infested with stomach bots: G. nasalis; settings: 10 mg/kg by nasogastric tube; for %-Wirksamkeit: expelled and dead larvae as percent of all larvae present, horse; for noch im Magen festgeheftet: larvae at necropsy on day 7, horse; for Zahl der Larven im Kot Total: total of days 1-7, horse
Procedure: (§1) Beispiel 3: In vivo-Prüfung an Pferden mit Magendasselbefall
(§2) Zwei Pferde mit Körpergewichten von 190 kg und 142 kg werden mit den Verbindungen A bzw. C aus Beispiel II behandelt. Die Dosis beträgt 10 mg/kg Körpergewicht. Die sich aus der Dosis und der Konzentration der Arzneizubereitung nach Beispiel 2 zu errechnende Menge der Zubereitung wird im Volumenverhältnis 1 : 1 mit Wasser verdünnt und den Pferden mittels Nasenschlundsonde verabreicht.
(§3) Nach der Behandlung werden die Pferde in Einzelboxen aufgestellt. […] Vorhandene Dassellarven werden gezählt und ihre Artzugehörigkeit bestimmt. Am siebten Tag nach der Behandlung werden die Pferde getötet und der Magen-Darmtrakt auf das Vorhandensein noch angehefteter und toter Dassellarven untersucht.
(§4) Die Zahl der abgegangenen und toten Larven wird auf die Gesamtzahl vorhandener Larven prozentual bezogen und ihr Prozentsatz als "% Wirksamkeit" bezeichnet. Somit besagen 100 %, daß alle und 0 %, daß keine Larven abgetötet und abgetrieben werden.

[3] = tested on: Gasterophilus intestinalis; assay: In vivo test in horses infested with stomach bots: G. intestinalis; settings: 10 mg/kg by nasogastric tube; for %-Wirksamkeit: expelled and dead larvae as percent of all larvae present, horse; for noch im Magen festgeheftet: larvae at necropsy on day 7, horse; for Zahl der Larven im Kot Total: total of days 1-7, horse
Procedure: as §1, §2, §3, §4

Question: Which “Zahl toter Larven Stunden nach Behandlung” value ([1]; 1 h after treatment) does the source give for CC1(C)[C@H](C(=O)O[C@H](C#N)c2cccc(Oc3ccccc3)c2)[C@@H]1C(Br)C(Cl)(Cl)Br (stereo partly drawn) [Verbindung C, (S)-o-Cyan-3-phenoxybenzyl(1R)-cis-3-(2', 2'-dichlor-1',2'-dibromäthyl)-2,2-dimethylcyclopropancarboxylat] here?
Answer: Its value is 4.

Question: And the “Zahl toter Larven Stunden nach Behandlung” value ([1]; 6 h after treatment)?
Answer: Its value is 10.

Question: What about the “Zahl toter Larven Stunden nach Behandlung” value ([1]; 24 h after treatment) of the same compound?
Answer: The value was 10.

Question: And the “Zahl toter Larven Stunden nach Behandlung” value ([1]; 48 h after treatment)?
Answer: Its value is 10.

Question: And the “Zahl toter Larven Stunden nach Behandlung” value ([1]; 72 h after treatment)?
Answer: The value was 10.

Question: What about the “Zahl toter Larven Stunden nach Behandlung” value ([1]; 96 h after treatment) of the same compound?
Answer: Its value is 10.

Question: What about the “Zahl toter Larven Stunden nach Behandlung” value ([1]; 120 h after treatment) of the same compound?
Answer: The value was 10.

Question: And the “Zahl der Larven im Kot an den Tagen nach der Behandlung” value ([2]; day 1, horse)?
Answer: The value was 0.

Question: What about the “Zahl der Larven im Kot an den Tagen nach der Behandlung” value ([2]; day 2, horse) of the same compound?
Answer: Its value is 3.

Question: And the “Zahl der Larven im Kot an den Tagen nach der Behandlung” value ([2]; day 3, horse)?
Answer: The value was 7.

Question: What about the “Zahl der Larven im Kot an den Tagen nach der Behandlung” value ([2]; day 4, horse) of the same compound?
Answer: Its value is 1.

Question: And the “Zahl der Larven im Kot an den Tagen nach der Behandlung” value ([2]; day 5, horse)?
Answer: Its value is 0.

Question: What about the “Zahl der Larven im Kot an den Tagen nach der Behandlung” value ([2]; day 6, horse) of the same compound?
Answer: The value was 0.

Question: And the “Zahl der Larven im Kot an den Tagen nach der Behandlung” value ([2]; day 7, horse)?
Answer: Its value is 0.

Question: And the “%-Wirksamkeit” value [2]?
Answer: Its value is 100%.

Question: What about the “noch im Magen festgeheftet” value [2] of the same compound?
Answer: The value was 0.

Question: And the “Zahl der Larven im Kot Total” value [2]?
Answer: The value was 11.

Question: What about the “Zahl der Larven im Kot an den Tagen nach der Behandlung” value ([3]; day 1, horse) of the same compound?
Answer: Its value is 1.

Question: And the “Zahl der Larven im Kot an den Tagen nach der Behandlung” value ([3]; day 2, horse)?
Answer: Its value is 2.

Question: What about the “Zahl der Larven im Kot an den Tagen nach der Behandlung” value ([3]; day 3, horse) of the same compound?
Answer: Its value is 8.

Question: What about the “Zahl der Larven im Kot an den Tagen nach der Behandlung” value ([3]; day 4, horse) of the same compound?
Answer: Its value is 10.

Question: What about the “Zahl der Larven im Kot an den Tagen nach der Behandlung” value ([3]; day 5, horse) of the same compound?
Answer: The value was 7.

Question: And the “Zahl der Larven im Kot an den Tagen nach der Behandlung” value ([3]; day 6, horse)?
Answer: The value was 2.

Question: What about the “Zahl der Larven im Kot an den Tagen nach der Behandlung” value ([3]; day 7, horse) of the same compound?
Answer: Its value is 0.

Question: What about the “%-Wirksamkeit” value [3] of the same compound?
Answer: Its value is 100%.

Question: And the “noch im Magen festgeheftet” value [3]?
Answer: The value was 0.

Question: And the “Zahl der Larven im Kot Total” value [3]?
Answer: The value was 30.

Question: What does the source list for CC1(C)[C@H](C(=O)O[C@H](C#N)c2cccc(Oc3ccccc3)c2)[C@@H]1C=C(Cl)Cl [Verbindung B, (S)-a-Cyan-3-phenoxybenzyl (1R)-cis-3-(2,2-dichlorvinyl)-2,2-dimethylcyclopropancarboxylat]?
Answer: Zahl toter Larven Stunden nach Behandlung ([1]; 1 h after treatment): 10; Zahl toter Larven Stunden nach Behandlung ([1]; 6 h after treatment): 10; Zahl toter Larven Stunden nach Behandlung ([1]; 24 h after treatment): 10; Zahl toter Larven Stunden nach Behandlung ([1]; 48 h after treatment): 10; Zahl toter Larven Stunden nach Behandlung ([1]; 72 h after treatment): 10; Zahl toter Larven Stunden nach Behandlung ([1]; 96 h after treatment): 10; Zahl toter Larven Stunden nach Behandlung ([1]; 120 h after treatment): 10

Question: For COP(=O)(OC)C(O)C(Cl)(Cl)Cl (centres unmarked) [Trichlorfon, Dimethyl-2,2,2-trichloro-1-hydroxyäthyl-phosphonat, reference compound], which “Zahl toter Larven Stunden nach Behandlung” value ([1]; 1 h after treatment) is on record?
Answer: Its value is 6*.

Question: And the “Zahl toter Larven Stunden nach Behandlung” value ([1]; 6 h after treatment)?
Answer: Its value is 7*.

Question: And the “Zahl toter Larven Stunden nach Behandlung” value ([1]; 24 h after treatment)?
Answer: The value was 4*.

Question: And the “Zahl toter Larven Stunden nach Behandlung” value ([1]; 48 h after treatment)?
Answer: The value was 5*.

Question: What about the “Zahl toter Larven Stunden nach Behandlung” value ([1]; 72 h after treatment) of the same compound?
Answer: The value was 9*.

Question: And the “Zahl toter Larven Stunden nach Behandlung” value ([1]; 96 h after treatment)?
Answer: The value was 6*.

Question: And the “Zahl toter Larven Stunden nach Behandlung” value ([1]; 120 h after treatment)?
Answer: Its value is 6*.

Question: How did the “Zahl toter Larven Stunden nach Behandlung” value ([1]; 1 h after treatment) turn out when CC1(C)[C@H](C(=O)O[C@H](C#N)c2cccc(Oc3ccccc3)c2)[C@@H]1C=C(Br)Br [Verbindung A, (S)-a-Cyan-3-phenoxybenzyl(1R)-cis-3-(2,2-dibromvinyl)-2,2-dimethylcyclopropancarboxylat] was run?
Answer: Its value is 10.

Question: What about the “Zahl toter Larven Stunden nach Behandlung” value ([1]; 6 h after treatment) of the same compound?
Answer: The value was 10.

Question: And the “Zahl toter Larven Stunden nach Behandlung” value ([1]; 24 h after treatment)?
Answer: The value was 10.

Question: What about the “Zahl toter Larven Stunden nach Behandlung” value ([1]; 48 h after treatment) of the same compound?
Answer: Its value is 10.

Question: And the “Zahl toter Larven Stunden nach Behandlung” value ([1]; 72 h after treatment)?
Answer: Its value is 10.

Question: What about the “Zahl toter Larven Stunden nach Behandlung” value ([1]; 96 h after treatment) of the same compound?
Answer: The value was 10.

Question: And the “Zahl toter Larven Stunden nach Behandlung” value ([1]; 120 h after treatment)?
Answer: The value was 10.

Question: And the “Zahl der Larven im Kot an den Tagen nach der Behandlung” value ([2]; day 1, horse)?
Answer: Its value is 1.

Question: And the “Zahl der Larven im Kot an den Tagen nach der Behandlung” value ([2]; day 2, horse)?
Answer: The value was 4.

Question: And the “Zahl der Larven im Kot an den Tagen nach der Behandlung” value ([2]; day 3, horse)?
Answer: Its value is 1.

Question: And the “Zahl der Larven im Kot an den Tagen nach der Behandlung” value ([2]; day 4, horse)?
Answer: The value was 0.

Question: What about the “Zahl der Larven im Kot an den Tagen nach der Behandlung” value ([2]; day 5, horse) of the same compound?
Answer: Its value is 0.

Question: And the “Zahl der Larven im Kot an den Tagen nach der Behandlung” value ([2]; day 6, horse)?
Answer: The value was 0.

Question: And the “Zahl der Larven im Kot an den Tagen nach der Behandlung” value ([2]; day 7, horse)?
Answer: Its value is 0.

Question: What about the “%-Wirksamkeit” value [2] of the same compound?
Answer: Its value is 100%.

Question: And the “noch im Magen festgeheftet” value [2]?
Answer: The value was 0.

Question: What about the “Zahl der Larven im Kot Total” value [2] of the same compound?
Answer: Its value is 6.

Question: And the “Zahl der Larven im Kot an den Tagen nach der Behandlung” value ([3]; day 1, horse)?
Answer: The value was 2.

Question: And the “Zahl der Larven im Kot an den Tagen nach der Behandlung” value ([3]; day 2, horse)?
Answer: The value was 16.

Question: What about the “Zahl der Larven im Kot an den Tagen nach der Behandlung” value ([3]; day 3, horse) of the same compound?
Answer: The value was 18.

Question: What about the “Zahl der Larven im Kot an den Tagen nach der Behandlung” value ([3]; day 4, horse) of the same compound?
Answer: Its value is 5.

Question: What about the “Zahl der Larven im Kot an den Tagen nach der Behandlung” value ([3]; day 5, horse) of the same compound?
Answer: The value was 0.

Question: What about the “Zahl der Larven im Kot an den Tagen nach der Behandlung” value ([3]; day 6, horse) of the same compound?
Answer: Its value is 0.

Question: And the “Zahl der Larven im Kot an den Tagen nach der Behandlung” value ([3]; day 7, horse)?
Answer: The value was 0.

Question: And the “%-Wirksamkeit” value [3]?
Answer: The value was 93%.

Question: And the “noch im Magen festgeheftet” value [3]?
Answer: Its value is 3.

Question: What about the “Zahl der Larven im Kot Total” value [3] of the same compound?
Answer: The value was 41.
